# Several values for one entry are separate records, joined by “and”; a condition that tells them apart may be missing. Identical values can stand only once. Like-named read-outs stand apart in the source and are kept apart here.
# What was measured:
# [1] = Gastro-intestinal tract simulated dissolution test (fasted/FaSSIF and fed/FeSSIF); format: physicochemical; conditions: for increase of Ivacaftor dissolution / apparent solubility in FeSSIF condition: FeSSIF vs FaSSIF
# Protocol: Gastro-intestinal tract simulated drug dissolution tests were performed by dispersing the blended pharmaceutical combination composition described above in purified water. The dispersion contained 1 mg/mL Lumacaftor and 0.625 mg/mL Ivacaftor (identical mixture to ORKAMBI®). After 30 minutes holding time, simulated gastric fluid (SGF V2) was added to dispersion in order to set-up the pH to 1.6 (fasted state simulation) or FeSSIF buffer to increase the pH to 5.8 (fed state simulation). After 60 minutes holding time, the pH of the fasted state simulated dispersion was set-up to pH=6.5 adding maleic acid solution. FaSSIF solution was also added to the dispersion to ensure the fasted condition in the intestine simulation. In case of fed state simulation FeSSIF solution was added to the dispersion.
# The dissolved amount of Lumacaftor and Ivacaftor from the blended pharmaceutical combination composition was measured by RP-HPLC after filtration with 0.1 μm pore size filter at different time points. Dissolution of Ivacaftor and Lumacaftor from the blended and granulated complex formulation was instantaneous, within 5 minutes more than 85% of the Ivacaftor and Lumacaftor dissolved from the pharmaceutical composition of present invention both in fasted and fed state simulated condition. (FIG. 3).
# [2] = Redispersibility / DLS particle size of ball milled formulations; format: physicochemical; conditions: after ball milling and lyophilization
# Protocol: Ivacaftor was ball milled in the presence of the excipients used for the preparation of solid dispersion. Crystalline Lumacaftor was ball milled in the absence of complexation agent (Luviscol VA64) and pharmaceutically acceptable excipient (SDS) and in the presence of them. Ball milling parameters were the following: • Speed: 500 rpm • Milling time: 1 hour • Number of the balls: 25 pcs with 10 mm diameter • Milling vessel's material: […] • Quantity of the milled samples: 100 mg API equivalent mass in 12 mL Milli-Q water
# After the milling, the vessel was washed out with 5 mL Milli-Q water. The products were frozen on salted ice and then it was lyophilized using a freeze-drier equipped with −110° C. ice condenser, with a vacuum pump. The material and in-vitro properties of the resulted formulations were compared to the complex Lumacaftor and Ivacaftor formulations.
# Particle size of the formulations was measured by DLS technique in reconstituted dispersion/solution.
# CFTR protein = CFTR protein (Homo sapiens, UniProt P13569); conditions: major human metabolites of Ivacaftor; cited from earlier work
# CFTR protein, sequence (P13569 whole entry): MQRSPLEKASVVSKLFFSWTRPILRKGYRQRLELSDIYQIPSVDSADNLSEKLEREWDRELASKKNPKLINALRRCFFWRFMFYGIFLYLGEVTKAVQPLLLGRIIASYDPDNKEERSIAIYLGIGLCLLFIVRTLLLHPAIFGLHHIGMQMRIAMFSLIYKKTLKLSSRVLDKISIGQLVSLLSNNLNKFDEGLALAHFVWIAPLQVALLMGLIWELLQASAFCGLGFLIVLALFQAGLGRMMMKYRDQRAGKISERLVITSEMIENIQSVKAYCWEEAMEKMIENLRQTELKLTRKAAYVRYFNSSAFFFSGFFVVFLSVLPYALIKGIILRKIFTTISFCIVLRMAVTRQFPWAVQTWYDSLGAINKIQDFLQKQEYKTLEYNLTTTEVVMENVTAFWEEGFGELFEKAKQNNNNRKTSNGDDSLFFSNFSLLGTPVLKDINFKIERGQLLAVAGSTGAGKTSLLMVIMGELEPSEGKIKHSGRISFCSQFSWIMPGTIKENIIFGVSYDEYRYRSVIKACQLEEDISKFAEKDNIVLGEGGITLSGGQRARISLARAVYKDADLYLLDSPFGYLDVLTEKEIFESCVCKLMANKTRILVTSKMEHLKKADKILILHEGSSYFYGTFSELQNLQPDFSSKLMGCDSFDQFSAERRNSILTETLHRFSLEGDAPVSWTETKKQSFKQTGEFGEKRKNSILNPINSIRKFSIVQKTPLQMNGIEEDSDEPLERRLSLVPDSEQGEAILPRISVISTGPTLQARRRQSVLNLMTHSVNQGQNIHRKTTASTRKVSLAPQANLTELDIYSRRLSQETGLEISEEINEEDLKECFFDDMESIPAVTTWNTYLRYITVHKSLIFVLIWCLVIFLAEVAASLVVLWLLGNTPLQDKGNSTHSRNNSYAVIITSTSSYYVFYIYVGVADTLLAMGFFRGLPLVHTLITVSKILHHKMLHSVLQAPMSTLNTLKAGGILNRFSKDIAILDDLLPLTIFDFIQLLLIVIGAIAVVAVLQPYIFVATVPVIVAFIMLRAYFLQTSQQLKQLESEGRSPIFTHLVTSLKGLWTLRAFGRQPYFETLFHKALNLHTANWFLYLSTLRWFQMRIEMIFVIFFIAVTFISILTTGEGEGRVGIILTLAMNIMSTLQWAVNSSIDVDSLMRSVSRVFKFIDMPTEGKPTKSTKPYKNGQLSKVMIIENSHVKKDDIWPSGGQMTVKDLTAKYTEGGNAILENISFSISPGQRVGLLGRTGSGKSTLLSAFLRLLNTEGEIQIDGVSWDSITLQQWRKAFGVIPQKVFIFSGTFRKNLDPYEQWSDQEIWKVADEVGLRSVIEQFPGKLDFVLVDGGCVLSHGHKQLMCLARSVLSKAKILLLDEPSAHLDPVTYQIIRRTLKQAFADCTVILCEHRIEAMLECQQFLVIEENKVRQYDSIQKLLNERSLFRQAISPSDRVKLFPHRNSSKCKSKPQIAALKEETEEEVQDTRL
# [3] = cited from earlier work; for share of the total dose eliminated as this metabolite: oral administration of Ivacaftor
# [4] = cited from earlier work; for median (range) tmax: multiple oral dose of Ivacaftor in combination with Lumacaftor, fed state; for exposure with fat-containing foods relative to fasting state: single dose of Lumacaftor/Ivacaftor
# CYP3A = conditions: in-vitro and clinical studies; cited from earlier work
# [5] = cited from earlier work
# [6] = Comparative apparent solubility test (100 nm filtration, UV-VIS or RP-HPLC); format: physicochemical; conditions: ultrapurified water, thermodynamic from solid, FIG. 17, read-out: comparative apparent solubility of Ivacaftor formulations
# Protocol: The apparent solubility was measured by UV-VIS spectroscopy or RP-HPLC at room temperature. The samples were dispersed in ultrapurified water in 1-20 mg/mL active ingredient equivalent concentration range. The resulting solutions were filtered by 100 nm disposable syringe filter. The active ingredient content in the filtrate was measured by UV-Vis spectrophotometry or RP-HPLC and the apparent solubility was calculated. The filtrate may contain particles which could not be filtrated out using 100 nm pore size filter.
# [7] = cited from earlier work; remark: listed apart in the source
# [8] = tested on: colorectal adenocarcinoma (Caco-2) cell system; conditions: cited from earlier work
# [9] = tested on: plasma proteins, primarily albumin; conditions: cited from earlier work
# [10] = single 150 mg oral dose, healthy volunteers, fed state
compound,measurement,setting,value
CC(C)(C)c1cc(C(C)(C)C)c(NC(=O)c2c[nH]c3ccccc3c2=O)cc1O [ball milled crystalline Ivacaftor],increase of Ivacaftor dissolution / apparent solubility in FeSSIF condition,[1],3 fold
Cc1ccc(NC(=O)C2(c3ccc4c(c3)OC(F)(F)O4)CC2)nc1-c1cccc(C(=O)O)c1 [ball milled crystalline Lumacaftor],redispersibility in purified water,[2],hardly redispersible
Cc1ccc(NC(=O)C2(c3ccc4c(c3)OC(F)(F)O4)CC2)nc1-c1cccc(C(=O)O)c1 [crystalline Lumacaftor],apparent solubility of Lumacaftor,[1]; both in FaSSIF and FeSSIF media,below 10%
CC(C)(C)c1cc(C(C)(C)C(=O)O)c(O)cc1NC(=O)c1c[nH]c2ccccc2c1=O [M6],potency relative to Ivacaftor,CFTR protein,less than one-fiftieth
same,share of the total dose eliminated as this metabolite,[3],43%
"CC(C)(C)c1cc(C(C)(C)C)c(NC(=O)c2c[nH]c3ccccc3c2=O)cc1O [Ivacaftor, N-(2,4-di-tert-butyl-5-hydroxyphenyl)-1,4-dihydro-4oxoquinoline-3-carboxamide]",median (range) tmax,[4],approximately 4.0 hours
same,exposure with fat-containing foods relative to fasting state,[4],approximately 3 times
same,main metabolic route,CYP3A,primarily metabolized by CYP3A
same,"apparent volume of distribution, mean (±SD)","[3]; 150 mg every 12 hours for 7 days, healthy volunteers, fed state",353 (122) L
same,accumulation ratio,[3]; every 12-hour dosing,2.2 to 2.9
same,time to steady-state plasma concentrations,[3]; every 12-hour dosing,3 to 5 days
same,median (range) tmax,[3]; fed state,approximately 4.0 (3.0; 6.0) hours
same,increase of exposure when given with food containing fat (food effect),"[3]; humans, fed vs fasted",2-to 4 fold and 2-4 fold
same,fraction of dose eliminated in the feces after metabolic conversion,[3]; oral administration,87.8%
same,urinary excretion as unchanged parent,[3]; oral administration,negligible
same,"AUC, mean (±SD)",[3]; [10],"10,600 (5260) ng*hr/mL"
same,"Cmax, mean (±SD)",[3]; [10],768 (233) ng/mL
same,time of peak plasma concentrations (tmax),[3]; [10],approximately 4 hours
same,apparent terminal half-life,[3]; single dose,approximately 12 hours
same,solubility in water,[5]; water,< 0.05 microgram/mL
CC(C)(C)c1cc(C(C)(C)CO)c(O)cc1NC(=O)c1c[nH]c2ccccc2c1=O [M1],potency relative to Ivacaftor,CFTR protein,approximately one-sixth
same,share of the total dose eliminated as this metabolite,[3],22%
CC(C)(C)c1cc(C(C)(C)C)c(NC(=O)c2c[nH]c3ccccc3c2=O)cc1O [crystalline Ivacaftor],increase of Ivacaftor dissolution / apparent solubility in FeSSIF condition,[1],5 fold
same,solubility,[6],< 100 µg/mL
Cc1ccc(NC(=O)C2(c3ccc4c(c3)OC(F)(F)O4)CC2)nc1-c1cccc(C(=O)O)c1 [Lumacaftor],"apparent volume of distribution, mean (±SD)","[7]; 200 mg every 24 hours for 28 days, CF patients, fed state",86.0 (69.8) L
same,total radioactivity recovered in the urine,[7]; Lumacaftor and its metabolites,8.6%
same,median (range) time of the maximum concentration (tmax),[7]; fed state,"approximately 4.0 (2.0, 9.0) hours"
same,increase of exposure when given with fat containing food,[7]; fed vs fasted,1.6-to 2.0 fold
same,excreted unchanged in the feces,[7]; humans,51%
same,main metabolic route,[7]; in-vitro and in vivo data,mainly metabolized via oxidation and glucuronidation
same,recovered in urine as unchanged parent,[7]; of total radioactivity,0.18%
same,half-life,[7]; patients with CF,approximately 26 hours
same,median (range) tmax,[4],approximately 4.0 hours
same,exposure with fat-containing foods relative to fasting state,[4],approximately 2 times
same,permeability in Caco-2 cell system,[8],high permeability
same,bound to plasma proteins,[9],approximately 99%
same,solubility,[5]; water and buffer solutions of pH 1.0 to pH 8.0,practically insoluble
